These results are taken from patent publication US10758534B2 (Vertex Pharmaceuticals Incorporated, priority 2014, dated 2020).

The target of this assay is T1, F508del (Homo sapiens, UniProt P13569, DEL508-508).
T1 construct: expressed in transfected cells
The assay can be described thus: Protocol 2: FRET membrane potential optical assay (VIPR), identification of correction compounds. The assay is classed as cell-based. The method, boiled down: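 NIH3T3 mouse fibroblasts stably expressing F508del-CFTR incubated with compound 16 h at 37 °C in serum-free medium, then loaded with CC2-DMPE/DiSBAC2(3) FRET dyes. Channel activated with 10 μM forskolin plus 20 μM genistein in Cl⁻-free (gluconate) bath; depolarisation from Cl⁻ efflux read on VIPR II.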

Where [1] appears, read: Table 3, compounds of Table 1 as modulators of CFTR activity, protocol not stated.
Where [2] appears, read: F508del CFTR modulator activity, compounds of Table 1, read-out: EC30.

The structures appear in SMILES notation. Read-outs that look alike come from different tables or passages of the source.

T1 sequence (P13569 with tags, fused parts or gaps DEL508-508): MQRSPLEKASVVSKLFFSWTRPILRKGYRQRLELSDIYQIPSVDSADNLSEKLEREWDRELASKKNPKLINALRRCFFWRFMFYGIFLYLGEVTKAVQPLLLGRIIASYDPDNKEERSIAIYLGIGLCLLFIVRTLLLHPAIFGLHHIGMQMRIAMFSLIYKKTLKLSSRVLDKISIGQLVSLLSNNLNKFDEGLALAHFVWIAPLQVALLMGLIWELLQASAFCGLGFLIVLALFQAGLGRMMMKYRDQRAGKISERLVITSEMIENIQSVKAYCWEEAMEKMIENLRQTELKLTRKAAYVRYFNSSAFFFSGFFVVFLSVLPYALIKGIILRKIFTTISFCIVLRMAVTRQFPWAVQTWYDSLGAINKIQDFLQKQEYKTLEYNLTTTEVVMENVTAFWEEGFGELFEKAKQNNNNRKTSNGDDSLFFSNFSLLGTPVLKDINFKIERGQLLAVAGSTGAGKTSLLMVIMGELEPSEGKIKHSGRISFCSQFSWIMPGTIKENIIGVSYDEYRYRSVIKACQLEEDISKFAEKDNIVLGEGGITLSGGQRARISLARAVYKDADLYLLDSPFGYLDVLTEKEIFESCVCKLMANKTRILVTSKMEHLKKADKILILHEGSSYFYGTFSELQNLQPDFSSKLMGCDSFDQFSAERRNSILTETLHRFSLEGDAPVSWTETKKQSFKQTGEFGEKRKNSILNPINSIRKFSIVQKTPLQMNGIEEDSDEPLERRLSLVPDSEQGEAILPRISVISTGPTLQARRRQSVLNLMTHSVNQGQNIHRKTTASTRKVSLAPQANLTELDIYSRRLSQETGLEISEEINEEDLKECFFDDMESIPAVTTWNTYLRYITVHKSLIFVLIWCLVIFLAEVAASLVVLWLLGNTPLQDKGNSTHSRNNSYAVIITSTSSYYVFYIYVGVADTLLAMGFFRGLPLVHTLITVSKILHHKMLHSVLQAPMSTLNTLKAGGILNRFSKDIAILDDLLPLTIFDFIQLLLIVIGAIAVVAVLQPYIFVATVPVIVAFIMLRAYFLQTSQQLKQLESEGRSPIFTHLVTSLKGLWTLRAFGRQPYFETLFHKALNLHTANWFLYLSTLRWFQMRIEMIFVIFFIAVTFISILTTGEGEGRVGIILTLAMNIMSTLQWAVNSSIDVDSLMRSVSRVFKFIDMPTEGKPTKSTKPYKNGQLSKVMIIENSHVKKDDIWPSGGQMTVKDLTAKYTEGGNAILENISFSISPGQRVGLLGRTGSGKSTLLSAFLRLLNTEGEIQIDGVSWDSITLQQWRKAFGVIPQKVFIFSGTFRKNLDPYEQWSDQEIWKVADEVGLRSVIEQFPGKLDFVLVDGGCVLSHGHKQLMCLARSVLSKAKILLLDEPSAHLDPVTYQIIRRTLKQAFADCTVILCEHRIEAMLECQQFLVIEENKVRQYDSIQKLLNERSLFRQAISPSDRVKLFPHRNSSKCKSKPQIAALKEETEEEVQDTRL

As to `Cc1cc(C)c(Oc2nc(-n3cc(C(F)(F)F)cn3)ccc2C(=O)NS(=O)(=O)c2cccc(N)n2)c(C)c1` [Compound 691, N-[(6-amino-2-pyridyl)sulfonyl]-6-[4-(trifluoromethyl)pyrazol-1-yl]-2-(2,4,6-trimethylphenoxy)pyridine-3-carboxamide], under setting [1], the EC30 (commonly the point of the concentration-response curve where the effect stands at 30%) was “+++ (“+++” means <3 uM)”.

As for `Cc1cc(C)c(Oc2nc(C(C)(C)C)ccc2C(=O)NS(=O)(=O)c2cccnc2)c(C)c1` [Compound 330, 6-tert-butyl-N-(3-pyridylsulfonyl)-2-(2,4,6-trimethylphenoxy)pyridine-3-carboxamide], the EC30 result under setting [1] is listed as “+++ (“+++” means <3 uM)”. In the case of `Cc1cc(C)c(Cn2c(C(=O)NS(=O)(=O)c3cccc(N)c3)cc3cc(F)ccc32)c(C)c1` [Compound 153, N-(3-aminophenyl)sulfonyl-5-fluoro-1-[(2,4,6-trimethylphenyl)methyl]indole-2-carboxamide], the EC30 entry under setting [1] was “+++ (“+++” means <3 uM)”.

As to `CC(C)c1ccc(-c2ccc(C(=O)NS(=O)(=O)c3ccn[nH]3)c(N3[C@H](C)CC[C@@H]3C)n2)cc1` [Compound 414, 2-[(2S,5R)-2,5-dimethylpyrrolidin-1-yl]-6-(4-isopropylphenyl)-N-(1H-pyrazol-5-ylsulfonyl)pyridine-3-carboxamide], under setting [1], the EC30 result is on record as “+++ (“+++” means <3 uM)”. The same measure, in the same setting: then `CC(C)COc1cc(F)cc(-c2ccc(C(=O)NS(=O)(=O)c3ccn[nH]3)c(N3CCCCCC3)n2)c1` [Compound 734, 2-(azepan-1-yl)-6-(3-fluoro-5-isobutoxy-phenyl)-N-(1H-pyrazol-5-ylsulfonyl)pyridine-3-carboxamide], with “+++ (“+++” means <3 uM)”; and `Cc1ccc(-c2nc(C(C)(C)C)ccc2C(=O)NS(=O)(=O)c2ccccn2)cc1` [Compound 407, 6-tert-butyl-2-(p-tolyl)-N-(2-pyridylsulfonyl)pyridine-3-carboxamide], with “++ (“++” means between 3 uM and 10 uM)”. Regarding `[2H]C1([2H])[C@@H](C)CC(C)(C)N1c1nc(-c2cc(F)cc(OCC(C)C)c2)ccc1C(=O)NS(=O)(=O)c1ccccc1` [Compound 2560, N-(benzenesulfonyl)-2-[(3S)-2,2-dideuterio-3,5,5-trimethyl-pyrrolidin-1-yl]-6-(3-fluoro-5-isobutoxy-phenyl)pyridine-3-carboxamide], the EC30 is less than 3 µM.

Turning to `CC1CN(c2ncccc2C(=O)NS(=O)(=O)c2cccc(N3CCN(C4CCCCC4)CC3)n2)C(C)(C)C1` (centres unmarked) [Compound 2601, N—[[6-(4-cyclohexylpiperazin-1-yl)-2-pyridyl]sulfonyl]-2-(2,2,4-trimethylpyrrolidin-1-yl)pyridine-3-carboxamide], under setting [2], the EC30 fell in the range of 3 to 10 µM. For the compound `CC1CN(c2ncc(C3=CCC(C(F)(F)F)CC3)cc2C(=O)NS(=O)(=O)c2cccc(N)n2)C(C)(C)C1` (centres unmarked) [Compound 2510, N-[(6-amino-2-pyridyl)sulfonyl]-5-[4-(trifluoromethyl)cyclohexen-1-yl]-2-(2,2,4-trimethylpyrrolidin-1-yl)pyridine-3-carboxamide], the EC30 under setting [2] was less than 3 µM. As to `CC(C)COc1cc(F)cc(-c2ccc(C(=O)NS(=O)(=O)c3cccc(N)n3)c(N3CCCC3Cc3ccccc3)n2)c1` (centres unmarked) [Compound 772, N-[(6-amino-2-pyridyl)sulfonyl]-2-(2-benzylpyrrolidin-1-yl)-6-(3-fluoro-5-isobutoxy-phenyl)pyridine-3-carboxamide], the EC30 result under setting [1] was “+++ (“+++” means <3 uM)”.

Regarding `CC(C)(C)c1ccc(C(=O)NS(=O)(=O)c2cccc(N)n2)c(N2CCC[C@H](c3ccccc3)C2)n1` [Compound 626, N-[(6-amino-2-pyridyl)sulfonyl]-6-tert-butyl-2-[(3R)-3-phenyl-1-piperidyl]pyridine-3-carboxamide], the EC30 entry under setting [1] is “+++ (“+++” means <3 uM)”. With `COc1cc(-c2ccc(C(=O)NS(=O)(=O)c3cccnc3N)c(N3C[C@@H](C)CC3(C)C)n2)ccc1F` [Compound 2124, N-[(2-amino-3-pyridyl)sulfonyl]-6-(4-fluoro-3-methoxy-phenyl)-2-[(4S)-2,2,4-trimethylpyrrolidin-1-yl]pyridine-3-carboxamide], under setting [2], the 30% effect concentration (EC30) is less than 3 µM. As to `CC(C)Cn1cc(-c2ccc(C(=O)NS(=O)(=O)c3cccc(N)n3)c(N3CC(C)CC3(C)C)n2)cn1` (centres unmarked) [Compound 631, N-[(6-amino-2-pyridyl)sulfonyl]-6-(1-isobutylpyrazol-4-yl)-2-(2,2,4-trimethylpyrrolidin-1-yl)pyridine-3-carboxamide], under setting [1], the EC30 result is on record as “+++ (“+++” means <3 uM)”. `CCCOc1cc(-c2ccc(C(=O)NS(=O)(=O)c3cccc(N)n3)c(N3CC(C)CC3(C)C)n2)ccc1Cl` (centres unmarked) [Compound 644, N-[(6-amino-2-pyridyl)sulfonyl]-6-(4-chloro-3-propoxy-phenyl)-2-(2,2,4-trimethylpyrrolidin-1-yl)pyridine-3-carboxamide]: the EC30 result under setting [1] was “+++ (“+++” means <3 uM)”.

As to `CC1CN(c2ncccc2C(=O)NS(=O)(=O)c2cccc(N(C)CCc3cccnc3)n2)C(C)(C)C1` (centres unmarked) [Compound 2005, N—[[6-[methyl-[2-(3-pyridyl)ethyl]amino]-2-pyridyl]sulfonyl]-2-(2,2,4-trimethylpyrrolidin-1-yl)pyridine-3-carboxamide], the EC30 under setting [2] lay within 3 to 10 µM. On the same count and under the same terms, then `CC(C)COc1cc(F)cc(-c2ccc(C(=O)NS(=O)(=O)c3cccc(N)n3)c(N3CC(C(F)(F)F)CC3(C)C)n2)c1` (centres unmarked) [Compound 2573], with less than 3 µM. Turning to `Cc1cc(C)c(Oc2nc(-c3cccc(CN4CCOCC4)c3)ccc2C(=O)NS(=O)(=O)c2cccc(N)n2)c(C)c1` [Compound 465, N-[(6-amino-2-pyridyl)sulfonyl]-6-[3-(morpholinomethyl)phenyl]-2-(2,4,6-trimethylphenoxy)pyridine-3-carboxamide], under setting [1], the EC30 entry was “++ (“++” means between 3 uM and 10 uM)”. Same read-out and setting: then `COc1ncccc1S(=O)(=O)NC(=O)c1ccc(C(C)(C)C)nc1Oc1ccc(C)cc1C` [Compound 89, 6-tert-butyl-2-(2,4-dimethylphenoxy)-N-[(2-methoxy-3-pyridyl)sulfonyl]pyridine-3-carboxamide], with “+++ (“+++” means <3 uM)”.

Regarding `C[C@@H]1CN(c2nc(-c3ccc(N(C)C)nc3)ccc2C(=O)NS(=O)(=O)c2cccnc2N)C(C)(C)C1` [Compound 2319, N-[(2-amino-3-pyridyl)sulfonyl]-6-[6-(dimethylamino)-3-pyridyl]-2-[(4S)-2,2,4-trimethylpyrrolidin-1-yl]pyridine-3-carboxamide], the EC30 under setting [2] is 3 to 10 µM. As for `Cc1cc(C)c(Cn2nc(-c3c(C)cccc3C)cc2C(=O)NS(=O)(=O)c2cccc(N)c2)c(C)c1` [Compound 209, N-(3-aminophenyl) sulfonyl-5-(2,6-dimethylphenyl)-2-[(2,4,6-trimethylphenyl)methyl]pyrazole-3-carboxamide], the EC30 result under setting [1] is recorded as “+++ (“+++” means <3 uM)”. Consider `Cc1cccc(C)c1CN1Cc2ccccc2C1(C)C(=O)NS(=O)(=O)c1cccc(N)n1` (centres unmarked) [Compound 790, N-[(6-amino-2-pyridyl)sulfonyl]-2-[(2,6-dimethylphenyl)methyl]-1-methyl-isoindoline-1-carboxamide], for which, under setting [1], the EC30 entry is reported as “+++ (“+++” means <3 uM)”. Same read-out and setting: then `Cc1cc(C)c(Oc2nc(-c3cc(C(F)(F)F)nn3C)ccc2C(=O)NS(=O)(=O)c2cccc(N)n2)c(C)c1` [Compound 457, N-[(6-amino-2-pyridyl)sulfonyl]-6-[2-methyl-5-(trifluoromethyl)pyrazol-3-yl]-2-(2,4,6-trimethylphenoxy)pyridine-3-carboxamide], with “+++ (“+++” means <3 uM)”; and `Cc1ccc(S(=O)(=O)NC(=O)c2cc(C(C)(C)C)nn2Cc2c(C)cccc2C)cc1N` [Compound 312, N-(3-amino-4-methyl-phenyl)sulfonyl-5-tert-butyl-2-[(2,6-dimethylphenyl)methyl]pyrazole-3-carboxamide], with “+++ (“+++” means <3 uM)”.

On to `COc1ccc(S(=O)(=O)NC(=O)c2ccc(C(C)(C)C)nc2-c2ccc(C)cc2)cn1` [Compound 512, 6-tert-butyl-N-[(6-methoxy-3-pyridyl)sulfonyl]-2-(p-tolyl)pyridine-3-carboxamide], for which, under setting [1], the EC30 entry is “++ (“++” means between 3 uM and 10 uM)”.

As for `CC1CN(c2ncccc2C(=O)NS(=O)(=O)c2cccc(Oc3ccccc3Cl)n2)C(C)(C)C1` (centres unmarked) [Compound 2298, N—[[6-(2-chlorophenoxy)-2-pyridyl]sulfonyl]-2-(2,2,4-trimethylpyrrolidin-1-yl)pyridine-3-carboxamide], under setting [2], the EC30 is less than 3 µM. `COc1c(F)cccc1-c1ccc(C(=O)NS(=O)(=O)c2cccc(N)n2)c(Oc2c(C)cc(C)cc2C)n1` [Compound 396, N-[(6-amino-2-pyridyl)sulfonyl]-6-(3-fluoro-2-methoxy-phenyl)-2-(2,4,6-trimethylphenoxy)pyridine-3-carboxamide]: under setting [1], the EC30 result was “+++ (“+++” means <3 uM)”. The same measure, in the same setting: then `COc1cccc2c1cc(C(=O)NS(=O)(=O)c1ccncc1)n2Cc1c(C)cc(C)cc1C` [Compound 36, 4-methoxy-N-(4-pyridylsulfonyl)-1-[(2,4,6-trimethylphenyl)methyl]indole-2-carboxamide], with “+++ (“+++” means <3 uM)”. For the compound `CC1CN(c2ncccc2C(=O)NS(=O)(=O)c2cccc(Oc3ccc4c(c3)OCO4)n2)C(C)(C)C1` (centres unmarked) [Compound 2013, N—[[6-(1,3-benzodioxol-5-yloxy)-2-pyridyl]sulfonyl]-2-(2,2,4-trimethylpyrrolidin-1-yl)pyridine-3-carboxamide], the EC30 under setting [2] is less than 3 µM. In the case of `CC(C)Oc1ccc(-c2ccc(C(=O)NS(=O)(=O)c3cccc(N)n3)c(N3[C@@H](C)CC[C@@H]3C)n2)cn1` [Compound 687, N-[(6-amino-2-pyridyl)sulfonyl]-2-[(2S,5S)-2,5-dimethylpyrrolidin-1-yl]-6-(6-isopropoxy-3-pyridyl)pyridine-3-carboxamide], the EC30 result under setting [1] was “++ (“++” means between 3 uM and 10 uM)”.
